The values below come from PubChem BioAssay (NCI).

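Values below derive from 48-hour exposures of cells grown in 96-well plates, with endpoints linearly interpolated between the two concentrations bracketing the appropriate inhibition level. GI50: concentration for 50% inhibition of growth. The concentration for full growth arrest is given as TGI.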

Common to all, as to test: inhibition of tumour cell growth, NCI panel, 48 h
Assay [1] concerns MOLT-4 leukemia.
In assay [2] the test system is SK-MEL-28 melanoma.
Assay [3] concerns M14 melanoma.
In assay [4] the test system is RXF 393 renal.
In assay [5] the test system is IGROV1 ovarian.
The test system of assay [6] is SR leukemia.
The test system of assay [7] is CAKI-1 renal.
Assay [8] relates to MALME-3M melanoma.
Assay [9] concerns SF-268 CNS.
Assay [10] relates to MDA-MB-435.

`CC(/C=C/C(=O)c1sc(-n2nc(-c3ccccc3)cc2-c2ccccc2)nc1C)=C\c1ccccc1`: the TGI in assay [1], in assay [2], in [3], in assay [4], in [5] and in assay [6] was above 100 µM throughout. The TGI in assay [7], in [8] and in [9] was above 100 µM throughout. Besides, the GI50 in assay [2], in assay [3] and in assay [4] was above 100 µM each time.

For `CN(C)c1ncnc2c1Cc1ccccc1C(=O)N2C`, the TGI in assay [1], in assay [2], in assay [3], in assay [4], in assay [5] and in assay [6] was above 100 µM each time. The TGI in assay [7], in assay [8] and in [9] was above 100 µM throughout.

Take `C=CCCOC(=O)CO[N+](=O)[O-]`: the TGI in assay [1], in [2], in assay [3], in [4], in assay [5] and in assay [6] was above 100 µM throughout. The TGI in [7], in assay [8] and in [9] was above 100 µM throughout.

Regarding `COc1cc(Br)c(CC2(C#N)c3ccccc3C3C(N2C(=O)c2ccccc2)C3(Cl)Cl)cc1OC` (stereo unspecified), the TGI in assay [2], in assay [3], in [4], in assay [5], in [6] and in assay [8] was above 65.5 µM in each case. Also, the TGI in assay [9] is above 65.5 µM.

In the case of `CC(=O)[O-].CC(=O)[O-].O=C(N/N=C/c1cc(Cl)cc(Cl)c1O)c1ccncc1.[Ni+2]`, the TGI in [1], in [2], in assay [3], in [4], in [5] and in [6] was above 100 µM each time. For the same molecule, the TGI in assay [8] and in assay [9] was above 100 µM in each case.

For the molecule `CCOC(=O)Cc1nc2ccccc2s1`, the TGI in [1] was 65.9 µM; in assay [2] it was 28.2 µM; in [3], 31 µM; in assay [4], 35.3 µM; in assay [5], above 100 µM; in assay [6], 48.9 µM. For the same molecule, the TGI was 48.1 µM in assay [7], 31.2 µM in [8] and 39.2 µM in [9].

On to `Cc1ccc2[nH]c3c(C)c4c(c(C)c3c2c1)CN(C)C=C4`, for which the TGI in assay [1] was above 40.6 µM; in [2], 4.03 µM; in [3] it was 13.6 µM; in assay [4], 12.9 µM; in [5] it was 7.38 µM; in assay [6], above 36.8 µM. In addition, the values for the TGI in assay [7], in assay [8] and in [9] were 5.89 µM, 4.58 µM and 0.975 µM, respectively. The GI50 in [7] was 1.21 µM; in assay [8], 1.72 µM.

Regarding `Cc1c(-c2ccccc2)c(=O)oc2ccc(Cl)cc12`, the TGI in assay [1], in [2], in assay [3], in assay [5], in assay [6] and in assay [8] was above 100 µM throughout. The TGI in assay [9] is above 100 µM.

For `Cc1nc2ccccn2c1NC(=O)NNC(=S)Nc1ccc(Br)cc1`, the GI50 was 36.7 µM in [1]; 33 µM in assay [2]; 24.5 µM in assay [3]; 52.6 µM in [4]; 48.9 µM in assay [5]; 18.9 µM in [6]. Besides, the GI50 in [10] is 29.3 µM; in assay [7] it was 29.6 µM; in assay [9], 67.9 µM. Moreover, the TGI was above 100 µM in assay [1]; 94 µM in [2]; 67.9 µM in assay [3]; above 100 µM in assay [4]; above 100 µM in assay [5]; 55.6 µM in assay [6]. Also, the TGI in assay [10] was 70.6 µM; in [7] it was above 100 µM; in assay [9] it was above 100 µM.

As for `CC1CN(c2ccc(Cl)cc2)CC(C)(C)OC(=O)O1` (stereo unspecified), the TGI in [2], in [3], in [4], in [5], in [6] and in [7] was above 100 µM each time. Also, the TGI in [8] and in assay [9] was above 100 µM throughout.

Take `CNC1C(O)C(OC2C(N)CC(N)C(OC3OC(CN)=CCC3N)C2O)OCC1(C)O` (stereo unspecified): the TGI in [1], in [2], in [3], in assay [5], in assay [6] and in [10] was above 100 µM in each case. In addition, the TGI in assay [7], in [8] and in [9] was above 100 µM each time.

As to `O=c1c(-c2ccccc2)c2oc(c1-c1ccccc1)CS(=O)(=O)CCC2`, the TGI in assay [1] is above 100 µM; in [2] it was 38.3 µM; in assay [4], 29.5 µM; in assay [5] it was above 100 µM; in [6] it was above 100 µM; in [7], 96.9 µM. Besides, the TGI in assay [8] is above 100 µM; in [9], 83.3 µM.

With `CCC(=O)C1(c2ccccc2)CCN(C)CC1`, the TGI in assay [1], in assay [2], in assay [3], in [4], in assay [5] and in assay [6] was above 100 µM in each case. Besides, the TGI in [7], in assay [8] and in assay [9] was above 100 µM in each case.

`CCN(CC)c1ccc(C2CC(c3cc(OC)c(OC)c(OC)c3)=NN2)cc1` (stereo unspecified): the GI50 in [1] was 1.56 µM; in assay [2], 23.7 µM; in assay [3], 1.16 µM; in assay [5] it was 0.327 µM; in assay [6] it was 0.286 µM; in [10], 0.404 µM. Besides, the GI50 in assay [7] is 0.346 µM; in assay [8], 14.5 µM; in assay [9], 0.797 µM. For the same molecule, the TGI in [1] was 8.14 µM; in [2] it was above 100 µM; in assay [3], above 100 µM; in assay [5], above 25.1 µM; in assay [6], 1.73 µM; in assay [10], above 100 µM. The TGI was above 78.7 µM in assay [8] and above 100 µM in assay [9].
